Active and inactive are the calls of the source. The rule behind the calls is not given here.
These compounds were tested against Ubiquitin-conjugating enzyme E2 N (Homo sapiens) (UniProt P61088) (assay: UBE2N binders by NMR, biophysical, purified protein (AID 1552)). Details: NMR binding to purified UBE2N.
Sequence of Ubiquitin-conjugating enzyme E2 N (Homo sapiens) (P61088 whole entry, looked up): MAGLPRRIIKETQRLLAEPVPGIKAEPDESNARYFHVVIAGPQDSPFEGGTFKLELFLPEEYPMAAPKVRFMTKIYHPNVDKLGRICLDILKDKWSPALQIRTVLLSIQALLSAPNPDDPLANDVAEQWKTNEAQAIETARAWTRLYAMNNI
`O=C(NC1CCS(=O)(=O)C1)C1CCCCC1` (stereo not given) was tested, and the Kd was > 4 mM (inactive). `NC(=O)c1ccc(C(N)=O)c(-c2ccccc2)c1` was tested, and the Kd was > 4 mM (inactive). In the case of `Nc1nnc(SCc2ccccc2Cl)s1`, the Kd is reported as > 4 mM (inactive). With `CC(=O)NC(=S)Nc1nc2ccccc2n1C(C)=O` the Kd was > 4 mM (inactive). With `C=C1C2=CC(=O)O[C@@H](c3ccoc3)[C@]2(C)CCC1[C@@]1(C)C=CC(=O)C(C)(C)[C@@H]1CC(=O)OC` (stereo not given in full) the Kd was > 4 mM (inactive). In the case of `CC(=O)c1c(O)cc(C)n(Cc2ccccc2)c1=O`, the Kd is reported as > 4 mM (inactive). `O=C(O)/C=C/C(=O)Nc1ccccc1C(F)(F)F` was tested, and the Kd was > 4 mM (inactive). `CCSc1nnc(-c2ccccc2N)c(=O)[nH]1` was tested, and the Kd was > 4 mM (inactive). For `O=c1oc2c(O)c(O)cc3c(=O)oc4c(O)c(O)cc1c4c23`, the Kd was > 4 mM (inactive). In the case of `NC(=S)CN1CCCC1=O`, the Kd is reported as > 4 mM (inactive). In the case of `COc1cc(-c2nnc(NC(C)=O)o2)cc(OC)c1OC`, the Kd is reported as > 4 mM (inactive). In the case of `COCC(=O)/C=C1\Sc2ccccc2N1C`, the Kd is reported as > 4 mM (inactive). In the case of `OC1CCC(C(F)(F)F)CC1` (stereo not given), the Kd is reported as > 4 mM (inactive). For `CCCCCCCCCCCCCCCCCCOCC(O)CO` (stereo not given), the Kd was > 4 mM (inactive). `CCC(=O)Oc1ccc(N2C(=O)CCC2=O)cc1` was tested, and the Kd was > 4 mM (inactive). In the case of `Cc1cc(N)ccc1NC(=O)c1ccco1`, the Kd is reported as > 4 mM (inactive). With `O=CN1CCN(C(=O)c2ccccc2Cl)CC1` the Kd was > 4 mM (inactive). For `CC(C)(C)C(=O)N1CCCC1C(=O)O` (stereo not given), the Kd was > 4 mM (inactive). `CC1(C)C(=O)C=C[C@@]2(C)C1C=C[C@]1(C)C2CC[C@@]2(C)[C@H](c3ccoc3)OC(=O)C3OC321` (stereo not given in full) was tested, and the Kd was > 4 mM (inactive). For `O=c1[nH]cc(NCc2ccco2)c(=O)[nH]1`, the Kd was > 4 mM (inactive). In the case of `Cc1ncc(CC(=O)O)s1`, the Kd is reported as > 4 mM (inactive). `COc1ccccc1NC(=O)c1ccc(C)s1` was tested, and the Kd was > 4 mM (inactive). In the case of `COc1cc2c(cc1OC)[C@@H]1C(=O)c3ccc(OC)c(CC=C(C)C)c3O[C@@H]1CO2`, the Kd is reported as > 4 mM (inactive). `COc1cc(OC)c(OC)cc1C=O` was tested, and the Kd was > 4 mM (inactive). For `COC(=O)c1c[nH]c2ccccc12`, the Kd was > 4 mM (inactive). `O=C(Nc1ccccc1N1CCCC1)c1cccnc1` was tested, and the Kd was > 4 mM (inactive). With `O=C1NC(=S)N/C1=C/c1ccc(O)c(Cl)c1` the Kd was > 4 mM (inactive). For `COc1ccc(CN2CCC(O)CC2)c(O)c1`, the Kd was > 4 mM (inactive). For `OCCNC(=S)Nc1ccc(F)cc1`, the Kd was > 4 mM (inactive). `Cc1cccc(N2C(=O)CC(=O)NC2=O)c1` was tested, and the Kd was > 4 mM (inactive). With `Cc1occc1C(=O)Nc1ccc2c(c1)CCC2` the Kd was > 4 mM (inactive). In the case of `NC1CSCC1O` (stereo not given), the Kd is reported as > 4 mM (inactive). `CN1CCC(NC(=O)Cc2c(F)cccc2Cl)CC1` was tested, and the Kd was > 4 mM (inactive). `OCCN1CCN(C(=S)c2ccc(Cl)cc2)CC1` was tested, and the Kd was > 4 mM (inactive). `COc1ccc(/C=C2/C(=O)N=C(N)N2C)cc1OC` was tested, and the Kd was > 4 mM (inactive). In the case of `COc1ccc2c(=O)c(OC)c(-c3ccccc3)oc2c1`, the Kd is reported as > 4 mM (inactive). For `Cc1cc(N2CCN(C)CC2)ncn1`, the Kd was > 4 mM (inactive). For `Nc1cc(=O)[nH]c(SCC(=O)Nc2nccs2)n1`, the Kd was > 4 mM (inactive). With `CC(=O)c1ccc[nH]1` the Kd was > 4 mM (inactive). With `Cc1cc(C(=O)Nc2sc(C)c(C)c2C#N)no1` the Kd was > 4 mM (inactive). In the case of `c1cnc(N2CCSCC2)nc1`, the Kd is reported as > 4 mM (inactive). With `O=c1nc(C(F)(F)F)nc2ccccn12` the Kd was > 4 mM (inactive). For `Cc1ccc2[nH]cc(CCN)c2c1`, the Kd was > 4 mM (inactive). With `CC(=O)N1CCC(NC2CCCCCC2)CC1` the Kd was > 4 mM (inactive). `COc1ccccc1Nc1nncc(=O)[nH]1` was tested, and the Kd was > 4 mM (inactive). With `COc1c(O)cc2c(c1O)[C@H]1O[C@H](CO)[C@@H](O)[C@H](O)[C@@H]1OC2=O` the Kd was > 4 mM (inactive). With `COc1ccc2c(c1)[n+](=O)c(C(C)=O)c(C)n2[O-]` the Kd was > 4 mM (inactive). In the case of `CC(C)(C)C(=O)Nc1nnc(SCC(N)=O)s1`, the Kd is reported as > 4 mM (inactive). `Cc1cc(=O)[nH]c(N2CCCCC2)n1` was tested, and the Kd was > 4 mM (inactive). In the case of `O=C(O)C1CC(=O)N(Cc2ccco2)C1` (stereo not given), the Kd is reported as > 4 mM (inactive). With `CC1(C)NCCN2C(=O)CSC21` (stereo not given) the Kd was > 4 mM (inactive). `COc1cc2c(cc1O)CCNC2C` (stereo not given) was tested, and the Kd was > 4 mM (inactive). With `CC(=O)Nc1c(C)n(C)n(-c2ccccc2)c1=O` the Kd was > 4 mM (inactive). For `O=C(Nc1ccon1)c1cc2c(s1)CCCC2`, the Kd was > 4 mM (inactive). With `COc1cc(N)ncn1` the Kd was > 4 mM (inactive). In the case of `O=c1c(-c2ccc(O)cc2)coc2cc(O)ccc12`, the Kd is reported as > 4 mM (inactive). In the case of `O=C(NCO)c1ccccc1Cl`, the Kd is reported as > 4 mM (inactive). `O=C(O)c1cccnc1Oc1ccccc1` was tested, and the Kd was > 4 mM (inactive). `COc1c2ccoc2cc2oc(C)cc(=O)c12` was tested, and the Kd was > 4 mM (inactive). With `CCn1c(=O)cc(N2CCC3(CC2)OCCO3)[nH]c1=O` the Kd was > 4 mM (inactive). `CNc1nc(SC)nc(N2CCOCC2)n1` was tested, and the Kd was > 4 mM (inactive). For `Cn1cccc1C=C1C(=O)NC(=S)NC1=O`, the Kd was > 4 mM (inactive). In the case of `O=C(O)c1ccc(NC(=O)c2cccs2)cc1`, the Kd is reported as > 4 mM (inactive). With `O=c1/c(=C\c2cccnc2)sc2nc3ccccc3n12` the Kd was > 4 mM (inactive). `Cc1ccc(C)n1CCN1CCNCC1` was tested, and the Kd was > 4 mM (inactive). `NNc1ncnc2sccc12` was tested, and the Kd was > 4 mM (inactive). `CSc1ncc(CO)n1Cc1ccccc1` was tested, and the Kd was > 4 mM (inactive). With `N#Cc1c[nH]n2c(=O)cc(Cc3ccccc3)nc12` the Kd was > 4 mM (inactive). For `COc1cccc(NC(=O)c2cnn(C)c2Cl)c1`, the Kd was > 4 mM (inactive). In the case of `CC[C@@]1(O)C[C@H](O)c2c(cc3c(c2O)C(=O)c2c(O)ccc(O)c2C3=O)[C@H]1C(=O)OC`, the Kd is reported as > 4 mM (inactive). For `COC(=O)c1ccc2snnc2c1`, the Kd was > 4 mM (inactive). For `OCc1cccc2c1OCCO2`, the Kd was > 4 mM (inactive). In the case of `Cc1cc(/C=N/O)nc(=O)[nH]1`, the Kd is reported as > 4 mM (inactive). In the case of `CSc1ccc(C2NC(=O)CCC2[N+](=O)[O-])cc1` (stereo not given), the Kd is reported as > 4 mM (inactive). For `CCOc1ccc(C(=O)c2ccc(OC)c(O)c2O)cc1`, the Kd was > 4 mM (inactive). With `Cc1cc(C)n(/N=C\c2cccs2)c(=O)c1C(N)=O` the Kd was > 4 mM (inactive). In the case of `O=C(O)c1ccnc2ccccc12`, the Kd is reported as > 4 mM (inactive). In the case of `Cc1cc(C)n(S(=O)(=O)c2ccc(C)c(C)c2C)n1`, the Kd is reported as > 4 mM (inactive). For `CN(C)S(=O)(=O)N1CCc2ccccc21`, the Kd was > 4 mM (inactive). With `CCn1nnc(NC(=O)c2ccccc2Br)n1` the Kd was > 4 mM (inactive). `C#CCCCCCCCCCCCC(O)CC(O)COC(C)=O` (stereo not given) was tested, and the Kd was > 4 mM (inactive). In the case of `O=C(OCc1c(Cl)cccc1Cl)c1cnccn1`, the Kd is reported as > 4 mM (inactive). In the case of `COc1ccc(N2CC(=O)NC2=O)cc1`, the Kd is reported as > 4 mM (inactive). `COc1ccccc1NC(=O)C1CCC(=O)N1` (stereo not given) was tested, and the Kd was > 4 mM (inactive). In the case of `Nc1ccc2c(c1)N1CCN=C1S2`, the Kd is reported as > 4 mM (inactive). `OCCNc1ccccn1` was tested, and the Kd was > 4 mM (inactive). `O=C1CSC(=Nc2ccc(F)cc2)N1` was tested, and the Kd was > 4 mM (inactive). For `O=C(O)C1COc2ccccc2O1` (stereo not given), the Kd was > 4 mM (inactive). In the case of `NCc1n[nH]c(=O)c2ccccc12`, the Kd is reported as > 4 mM (inactive). In the case of `CCNS(=O)(=O)c1cc(Br)ccc1OC`, the Kd is reported as > 4 mM (inactive). With `CNC(=S)Nc1cccc(C(=O)O)c1` the Kd was > 4 mM (inactive). With `Nc1ccc(NC(=O)c2ccco2)c(Cl)c1` the Kd was > 4 mM (inactive). In the case of `Cc1cc(C)nc(N2CC(=O)N(C)C2=N)n1`, the Kd is reported as > 4 mM (inactive). With `Cn1nc(C(=O)N2CCOCC2)c2ccccc2c1=O` the Kd was > 4 mM (inactive). In the case of `O=C(NS(=O)(=O)c1ccccc1)c1ccccc1F`, the Kd is reported as > 4 mM (inactive). For `OCC1CCN(c2ncccn2)CC1`, the Kd was > 4 mM (inactive). For `O=C1CSC(=O)N1CN1CCOCC1`, the Kd was > 4 mM (inactive). `O=C(O)CCc1nc2ccccc2[nH]c1=O` was tested, and the Kd was > 4 mM (inactive). With `Cc1cccc(NS(=O)(=O)c2cccs2)n1` the Kd was > 4 mM (inactive). With `O=C(O)c1ccc2c(c1)OCCO2` the Kd was > 4 mM (inactive). For `Cc1cc(N(CN2CCCC2=O)C(=O)c2ccccc2)no1`, the Kd was > 4 mM (inactive). In the case of `NC(=O)C(=O)Nc1nc(-c2ccccc2)cs1`, the Kd is reported as > 4 mM (inactive). `COC(CC(=O)O)c1nc2ccccc2s1` (stereo not given) was tested, and the Kd was > 4 mM (inactive). `O=C1COc2cc(O)ccc21` was tested, and the Kd was > 4 mM (inactive). In the case of `CSc1nc(C)cc(Oc2ccc(=O)n(C)n2)n1`, the Kd is reported as > 4 mM (inactive). `O=C1c2ccncc2C(=O)N1CO` was tested, and the Kd was > 4 mM (inactive). In the case of `COc1ccc(C)cc1S(=O)(=O)N1CCCCC1`, the Kd is reported as > 4 mM (inactive). `OCC1CNc2ccccc2O1` (stereo not given) was tested, and the Kd was > 4 mM (inactive). In the case of `O=C1CCNc2ccccc2N1`, the Kd is reported as > 4 mM (inactive). For `CNc1nc(C)nc(-n2nc(C)cc2C)n1`, the Kd was > 4 mM (inactive). For `O=C(Nc1nnc(-c2ccco2)o1)c1ccc([N+](=O)[O-])o1`, the Kd was > 4 mM (inactive). In the case of `Cc1cc(=O)[nH]c2ccccc12`, the Kd is reported as > 4 mM (inactive). In the case of `Cn1nc(C(=O)NCc2cccnc2)c2ccccc2c1=O`, the Kd is reported as > 4 mM (inactive). With `CC(=O)Nc1ccc(C(=O)N2CCOCC2)cc1Cl` the Kd was > 4 mM (inactive). `O=C(O)C1CNc2ccccc2O1` (stereo not given) was tested, and the Kd was > 4 mM (inactive). With `Cc1ccc(C(=O)Nn2cnnc2)s1` the Kd was > 4 mM (inactive). `O=C(O)C1=CCCNC1` was tested, and the Kd was > 4 mM (inactive). In the case of `NCc1ccc(CN2CCOCC2)cc1`, the Kd is reported as > 4 mM (inactive). `CC(=O)O[C@H]1CC[C@@]2(C)C(CC[C@]3(C)C2C(=O)C=C2C4[C@@H](C)[C@H](C)CC[C@]4(C(=O)O)CC[C@]23C)C1(C)C` (stereo not given in full) was tested, and the Kd was > 4 mM (inactive). For `CSc1nc2cc(F)c(F)cc2n1C`, the Kd was > 4 mM (inactive).

Source: PubChem BioAssay AID1552 (Sanford-Burnham Center for Chemical Genomics, 2009)
